Patent publication US11254661B2, “Quinoline derivatives for treating infections with helminths” (Bayer Animal Health GMBH, priority 2017, dated 2022)

Assays:
C. elegans Slo-1a = C. elegans Slo-1a (Caenorhabditis elegans, UniProt Q95V25)
Method: In Vitro Assay 1: C. elegans Slo-1a—Action at a Recombinant C. elegans Cell Line
Cells were cultured at 37° C. and 5% CO2 in MEMalpha with Gutamax I (Invitrogen, Nr.: 32571), supplemented with 10% (v/v) heat inactivated fetal bovine serum (Invitrogen, Nr.: 10500), G418 (1 mg/ml, Invitrogen, Nr.: 10131). Cells were detached using Accutase (Sigma, Nr.: A6964).
Membrane Potential Measurements
Laboratory compound testing was performed on 384-well microtiter plates (MTPs, Greiner, Nr.: 781092). 8000 cells/well were plated onto 384-well MTPs and cultured for 20 to 24 hours at 37° C. and 5% CO2. After removal of the cell culture medium, the cells were washed once with tyrode (150 mM NaCl, 0.3 mM KCl, 2 mM CaCl2, 1 mM MgCl2, 0.8 mM NaH2PO4, 5 mM Glucose, 28 mM Hepes, pH 7.4) and then loaded with the voltage sensitive dye of the Membrane Potential Assay Kit diluted in tyrode for 1 h at room temperature.
After starting the measurement of fluorescence using a FLIPR Tetra(Molecular Devices, Exc. 510-545 nm, Emm. 565-625 nm), test compounds were added followed by the addition of KCl tyrode (final assay concentration: 70 mM KCl, 2 mM CaCl2, 1 mM MgCl2, 0.8 mM NaH2PO4, 5 mM Glucose, 28 mM Hepes, pH 7.4, including the voltage sensitive dye). The measurement was completed after 7 minutes.

[1] = test system: Dirofilaria immitis microfilariae; test: In Vitro Assay 2: Dirofilaria immitis microfilariae (DIROIM L1) motility; details: 72 h

C. elegans Slo-1a, sequence (Q95V25 whole entry): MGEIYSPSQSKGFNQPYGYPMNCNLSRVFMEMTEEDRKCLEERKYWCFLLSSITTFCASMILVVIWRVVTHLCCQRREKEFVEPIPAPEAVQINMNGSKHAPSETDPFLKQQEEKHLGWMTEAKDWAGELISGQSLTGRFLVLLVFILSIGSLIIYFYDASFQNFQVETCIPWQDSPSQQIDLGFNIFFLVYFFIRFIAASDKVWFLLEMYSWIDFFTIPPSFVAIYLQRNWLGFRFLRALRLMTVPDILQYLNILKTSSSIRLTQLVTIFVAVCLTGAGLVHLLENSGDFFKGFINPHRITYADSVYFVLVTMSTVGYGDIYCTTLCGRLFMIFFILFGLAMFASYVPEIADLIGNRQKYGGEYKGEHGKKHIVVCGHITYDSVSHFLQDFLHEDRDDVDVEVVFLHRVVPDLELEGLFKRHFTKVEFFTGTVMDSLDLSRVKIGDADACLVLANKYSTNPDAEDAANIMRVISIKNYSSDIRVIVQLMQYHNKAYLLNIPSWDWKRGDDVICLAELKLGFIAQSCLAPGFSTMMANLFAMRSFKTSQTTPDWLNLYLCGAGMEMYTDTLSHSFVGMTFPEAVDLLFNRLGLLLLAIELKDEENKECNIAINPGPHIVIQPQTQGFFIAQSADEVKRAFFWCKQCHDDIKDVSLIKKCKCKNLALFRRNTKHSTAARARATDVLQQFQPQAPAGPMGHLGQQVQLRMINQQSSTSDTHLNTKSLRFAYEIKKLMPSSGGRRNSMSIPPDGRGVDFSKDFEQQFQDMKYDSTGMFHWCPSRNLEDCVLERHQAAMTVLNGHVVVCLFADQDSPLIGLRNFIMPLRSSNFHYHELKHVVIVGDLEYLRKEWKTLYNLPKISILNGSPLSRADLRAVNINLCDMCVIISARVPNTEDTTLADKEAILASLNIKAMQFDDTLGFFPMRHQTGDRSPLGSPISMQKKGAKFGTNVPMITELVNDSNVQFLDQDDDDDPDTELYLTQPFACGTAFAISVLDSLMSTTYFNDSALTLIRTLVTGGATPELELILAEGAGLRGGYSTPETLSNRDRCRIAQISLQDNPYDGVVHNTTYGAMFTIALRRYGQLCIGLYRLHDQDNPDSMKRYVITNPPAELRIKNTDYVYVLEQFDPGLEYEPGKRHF

| SMILES | EC50 (C. elegans Slo-1a) | EC50 [1] |
| --- | --- | --- |
| C[C@@H]1COCCN1c1cccc2c(N3CCOCC3)c(C(=O)N[C@H]3CCOc4ccccc43)cnc12 [Example 27, N-[(4S)-3,4-dihydro-2H-chromen-4-yl]-8-[(3R)-3-methylmorpholin-4-yl]-4-(morpholin-4-yl)quinoline-3-carboxamide] | 0.316 to 5.01 µM | < 1 mg/L |
| CN(C)c1c(C(=O)N[C@H]2CCOc3ccccc32)cnc2c(C3=CCCCCC3)cccc12 [Example 14, (S)—N-(Chroman-4-yl)-8-(cyclohept-1-en-1-yl)-4-(dimethylamino)quinoline-3-carboxamide] | 0.00316 to 0.0316 µM | < 0.1 mg/L |
| CC1CC(C)CN(c2c(F)ccc3c(N(C)C)c(C(=O)N[C@H]4CCc5ccccc54)cnc23)C1 (stereo partly drawn) [Example 41, N-[(1S)-2,3-dihydro-1H-inden-1-yl]-4-(dimethylamino)-8-(3,5-dimethylpiperidin-1-yl)-7-fluoroquinoline-3-carboxamide] | 0.00316 to 0.0316 µM | < 1 mg/L |
| CC(C)c1cccc2c(N(C)C)c(C(=O)N[C@H]3CCOc4ccccc43)cnc12 [Example 10, (S)—N-(Chroman-4-yl)-4-(dimethylamino)-8-isopropylquinoline-3-carboxamide] | 0.0316 to 0.316 µM | < 1 mg/L |
| CC(=O)Nc1cccc2c(N3CCOCC3)c(C(=O)N[C@H]3CCOc4ccccc43)cnc12 [Example 28, 8-(acetylamino)-N-[(4S)-3,4-dihydro-2H-chromen-4-yl]-4-(morpholin-4-yl)quinoline-3-carboxamide] | 0.316 to 5.01 µM | < 10 mg/L |
| CN(C)c1c(C(=O)N[C@H]2CCOc3ccccc32)cnc2c(C3CCOCC3)cccc12 [Example 6, (S)—N-(Chroman-4-yl)-4-(dimethylamino)-8-(tetrahydro-2H-pyran-4-yl)quinoline-3-carboxamide] | 0.0316 to 0.316 µM | < 1 mg/L |
| CN(C)c1c(C(=O)N[C@H]2CCOc3ccccc32)cnc2c(C3=CCOCC3)cccc12 [Example 13, (S)—N-(Chroman-4-yl)-8-(3,6-dihydro-2H-pyran-4-yl)-4-(dimethylamino)quinoline-3-carboxamide] | 0.0316 to 0.316 µM | < 1 mg/L |
| CC(C)CCc1cccc2c(N(C)C)c(C(=O)N[C@H]3CCOc4ccccc43)cnc12 [Example 3, (S)—N-(Chroman-4-yl)-4-(dimethylamino)-8-isopentylquinoline-3-carboxamide] | 0.00316 to 0.0316 µM | < 1 mg/L |
| CN(C)c1c(C(=O)N[C@H]2CCc3ccccc32)cnc2c(N3CCS(=O)(=O)CC3)c(F)ccc12 [Example 46, N-[(1S)-2,3-dihydro-1H-inden-1-yl]-4-(dimethylamino)-8-(1,1-dioxidothiomorpholin-4-yl)-7-fluoroquinoline-3-carboxamide] | 0.316 to 5.01 µM | < 10 mg/L |
| COCC#Cc1cccc2c(N(C)C)c(C(=O)N[C@H]3CCOc4ccccc43)cnc12 [Example 2, (S)—N-(Chroman-4-yl)-4-(dimethylamino)-8-(3-methoxyprop-1-yn-1-yl)quinoline-3-carboxamide] | 0.316 to 5.01 µM | < 10 mg/L |
| CN(C)c1c(C(=O)N[C@H]2CCc3ccccc32)cnc2c(N3CCC(F)(F)CC3)c(F)ccc12 [Example 39, 8-(4,4-difluoropiperidin-1-yl)-N-[(1S)-2,3-dihydro-1H-inden-1-yl]-4-(dimethylamino)-7-fluoroquinoline-3-carboxamide] | 0.00316 to 0.0316 µM | < 1 mg/L |
| O=C(N[C@H]1CCc2ccccc21)c1cnc2c(N3CCOCC3)c(F)ccc2c1N1CCOCC1 [Example 45, N-[(1S)-2,3-dihydro-1H-inden-1-yl]-7-fluoro-4,8-di(morpholin-4-yl)quinoline-3-carboxamide] | 0.0316 to 0.316 µM | < 1 mg/L |
| CN(C)c1c(C(=O)N[C@H]2CCc3ccccc32)cnc2c(N3CCOCC3)c(F)ccc12 [Example 47, N-[(1S)-2,3-dihydro-1H-inden-1-yl]-4-(dimethylamino)-7-fluoro-8-(morpholin-4-yl)quinoline-3-carboxamide] | 0.316 to 5.01 µM | < 10 mg/L |
| CN(C)c1c(C(=O)N[C@H]2CCOc3ccccc32)cnc2c(C3=CCC(C(F)(F)F)CC3)cccc12 (stereo partly drawn) [Example 16, N—((S)-Chroman-4-yl)-4-(dimethylamino)-8-(4-(trifluoromethyl)cyclohex-1-en-1-yl)quinoline-3-carboxamide] | 0.00316 to 0.0316 µM | < 1 mg/L |
| CC(C)c1c(C(=O)N[C@H]2CCOc3ccccc32)cnc2c(N3CCCCC3)cccc12 [Example 35, N-[(4S)-3,4-dihydro-2H-chromen-4-yl]-8-(piperidin-1-yl)-4-(propan-2-yl)quinoline-3-carboxamide] | 0.0316 to 0.316 µM | < 0.1 mg/L |
| COCCCc1cccc2c(N(C)C)c(C(=O)N[C@H]3CCOc4ccccc43)cnc12 [Example 4, (S)—N-(Chroman-4-yl)-4-(dimethylamino)-8-(3-methoxypropyl)quinoline-3-carboxamide] | 0.316 to 5.01 µM | < 10 mg/L |
| O=C(N[C@H]1CCOc2ccccc21)c1cnc2c(N3CCCCC3)cccc2c1N1CCOCC1 [Example 29, N-[(4S)-3,4-dihydro-2H-chromen-4-yl]-4-(morpholin-4-yl)-8-(piperidin-1-yl)quinoline-3-carboxamide] | 0.0316 to 0.316 µM | < 0.1 mg/L |
| CN(C)c1c(C(=O)N[C@H]2CCOc3ccccc32)cnc2c(C3COC3)cccc12 [Example 5, (S)—N-(Chroman-4-yl)-4-(dimethylamino)-8-(oxetan-3-yl)quinoline-3-carboxamide] | 0.316 to 5.01 µM | < 10 mg/L |
| CC(C)c1c(C(=O)N[C@H]2CCOc3ccccc32)cnc2c(N3C[C@H](C)C[C@H](C)C3)cccc12 [Example 36, N-[(4S)-3,4-dihydro-2H-chromen-4-yl]-8-[(3R,5S)-3,5-dimethylpiperidin-1-yl]-4-(propan-2-yl)quinoline-3-carboxamide] | 0.00316 to 0.0316 µM | < 0.1 mg/L |
| CC(C)C#Cc1cccc2c(N(C)C)c(C(=O)N[C@H]3CCOc4ccccc43)cnc12 [Example 1, (S)—N-(Chroman-4-yl)-4-(dimethylamino)-8-(3-methylbut-1-yn-1-yl)quinoline-3-carboxamide] | 0.0316 to 0.316 µM | < 10 mg/L |
| CN(C)c1c(C(=O)N[C@H]2CCc3ccccc32)cnc2c(N3CCCC3)c(F)ccc12 [Example 42, N-[(1S)-2,3-dihydro-1H-inden-1-yl]-4-(dimethylamino)-7-fluoro-8-(pyrrolidin-1-yl)quinoline-3-carboxamide] | 0.0316 to 0.316 µM | < 10 mg/L |
| CN(C)c1c(C(=O)N[C@H]2CCOc3ccccc32)cnc2c(C3=CCNCC3)cccc12 [Example 21, (S)—N-(Chroman-4-yl)-4-(dimethylamino)-8-(1,2,3,6-tetrahydropyridin-4-yl)quinoline-3-carboxamide] | 0.316 to 5.01 µM | < 10 mg/L |
| CN(C)c1c(C(=O)N[C@H]2CCOc3ccccc32)cnc2c(C3CN(C(=O)OC(C)(C)C)C3)cccc12 [Example 20, tert-Butyl(S)-3-(3-(chroman-4-ylcarbamoyl)-4-(dimethylamino)quinolin-8-yl)azetidine-1-carboxylate] | 0.316 to 5.01 µM | < 10 mg/L |
| O=C(N[C@H]1CCOc2ccccc21)c1cnc2c(N3CCOCC3)cccc2c1N1CCOCC1 [Example 24, N-[(4S)-3,4-dihydro-2H-chromen-4-yl]-4,8-di(morpholin-4-yl)quinoline-3-carboxamide] | 0.316 to 5.01 µM | < 10 mg/L |
